Results published in patent US20250309306A1, “Cationic Viologen Derivatives and Use Thereof in Redox Flow Batteries” (priority 2024, published 2025).

Experiments:
Type in all cases: physicochemical
[1] = Pulse voltammetry (SWV/DPV), three-electrode cell: redox potential of first reduction
[2] = Cyclic voltammetry, repeated charging-discharging cycles (integrated area over 100 scans)
[3] = Water solubility by quantitative NMR; conditions: for solubility: water (D2O), water, thermodynamic from solid
Procedure: The compound to be tested was dissolved in 100 μl D2O until saturation was reached. Any undissolved compound was filtered off and the filtrate was combined with a standard solution containing a known amount of a calibration compound as an internal reference. The sample is investigated using 1H NMR. […] The solubility of the compound to be tested was then calculated from a relative concentration determination based on the known calibration compound concentration.

Reaction rate (k°) = assay: Reaction rate (k°)
[4] = Diffusion coefficient by Levic plot, rotating disk electrode
Procedure: The diffusion coefficient of molecules was measured using Levic plot, obtained using a rotating disk electrode (RDE) setup according to standard procedures.

[5] = Table 2, Ag/AgCl reference, +0.200 V offset applied, glassy carbon working electrode
[6] = Table 3, comparison of transquat, diquat and annulated diquat

SMILES	Redox Potential (V vs SHE) [1, 5] [V vs SHE]	Capacity over 100 cycles ([2]; Table 2)	solubility ([3]; Table 2, at 20°C) [mM]	Reaction Rate (k°, in cm/s) (Reaction rate (k°); Table 2) [cm/s]	Diffusion coefficient (D, in cm^2s^−1) ([4]; Table 2)	Solubility in water (M, at 20°C) ([3]; Table 2, at 20°C)	Redox Potential (V vs SHE) [1, 6] [V vs SHE]	Capacity over 100 cycles ([2]; Table 3)	Solubility in water (M, at 20° C.) ([3]; Table 3, at 20° C.) [mM]	Reaction Rate (k°, in cm/s) (Reaction rate (k°); Table 3) [cm/s]	Diffusion coefficient (D, in cm^2s^−1) ([4]; Table 3)	solubility ([3]; Table 3, at 20° C.) [mM]
CCOc1cc2c3[n+](c1)CCc1cc(OCC)c[n+](c1-3)CC2.Cl	−0.80	0.99	> 1500	0.00615	1.41 × 10^−5 cm^2s^−1							
COc1cc[n+]2c3c1CC[n+]1ccc(OC)c(c1-3)CC2.[Cl-].[Cl-]	−0.80	0.80		0.00414	2.5 × 10^−6 cm^2s^−1	Low						
[Cl-].[Cl-].c1cc2c3[n+](c1)CCCc1ccc[n+](c1-3)CCC2	−0.64	0.98	> 1500	0.0194	1.63 × 10^−5 cm^2s^−1							
[Cl-].[Cl-].c1cc2c3[n+](c1)CCc1ccc[n+](c1-3)CC2	−0.48	0.98	> 1500	0.00764	1.62 × 10^−5 cm^2s^−1		−0.48	0.98	>1500	0.00764	1.62 × 10^−5 cm^2s^−1	
Cc1cc2c3[n+](c1)CCc1cc(C)c[n+](c1-3)CC2.[Cl-].[Cl-]	−0.59	0.95	~1000	0.016	6.45 × 10^−6 cm^2s^−1							
[Br-].[Br-].c1cc2c3[n+](c1)CC[n+]1cccc(c1-3)CC2 [reference compound]							−0.42	0.98		0.00768	9.87 × 10^−6 cm^2s^−1	> 1500
